Measured values published in patent publication US9907859B2 (priority 2010, dated 2018).
Converted amounts (≈) assume the structure as drawn. “And” between values parts separate entries of the source, which are not always exact repeats. Equal entries are not always repeated. Where two headings read alike, the source gives them in different places.

Assays:
physchem [1] = settings: aqueous with cosolvent or surfactant or cyclodextrin
[2] = both, cynomolgus monkey, in vivo, po
camelpox = settings: read-out: 50% effective concentration [EC50], inhibition of virus replication; cited from earlier work
monkeypox = settings: in vitro, read-out: 50% effective concentration [EC50], inhibition of virus replication; cited from earlier work
variola viruses = settings: in vitro, read-out: 50% effective concentration [EC50], inhibition of virus replication; cited from earlier work
[3] = both, New Zealand White, rabbit, in vivo, po, 100 mg/kg
VV = settings: mouse, in vivo; cited from earlier work
cowpox virus (CV) = settings: in vitro, read-out: 50% effective concentration [EC50], inhibition of virus replication; cited from earlier work
[4] = New Zealand White, rabbit, in vivo
ectromelia virus (ECTV) = settings: read-out: 50% effective concentration [EC50], inhibition of virus replication; cited from earlier work
in vivo [5] = settings: both, cynomolgus monkey; for AUC(0-inf): AUCINF—obs; for bioavailability: cynomolgus, po
CV = settings: in vivo; cited from earlier work
[6] = in vivo
[7] = female, CD-1, mouse, in vivo; for Cmax: iv
ECTV = settings: in vivo; cited from earlier work
physchem [8] = settings: thermodynamic from solid
in vivo [9] = settings: New Zealand White, rabbit, iv; for clearance: CL

## O=C(NN1C(=O)C2C3C=CC(C4CC34)C2C1=O)c1ccc(C(F)(F)F)cc1 (centres unmarked) [ST-246, 4-trifluoromethyl-N-(3,3a,4,4a,5,5a,6,6a-octahydro-1,3-dioxo-4,6-ethenocycloprop[f]isoindol-2(1H)-yl)-benzamide]
Physchem [1]; 4 °C, Solubility of ST-246, 4 ° C.
  solubility: 6290 µg/mL (≈ 16.7 mM)
Physchem [1]; 25 °C, Solubility of ST-246, 25 ° C.
  solubility: 7570 µg/mL (≈ 20.1 mM)
Physchem [1]; 40 °C, Solubility of ST-246, 40 ° C.
  solubility: 11200 µg/mL (≈ 29.7 mM)
Physchem [1]; 60 °C, Solubility of ST-246, 60 ° C.
  solubility: 16200 µg/mL (≈ 43.2 mM)
[2]
  increase of exposure (AUCinf-obs): 84 fold
  increase of maximum plasma concentration (Cmax): 37 fold
[2]; 10 mg/kg
  HL_Lambda_z: 7.0 ± 0.9 h
[2]; 20 mg/kg
  HL_Lambda_z: 7.2 ± 2.3 h
camelpox
  EC50: ≤ 70 nM
monkeypox
  EC50: ≤ 70 nM
Variola viruses
  EC50: ≤ 70 nM
[3]
  AUC0-24 hr: 19800 ± 16600 ng·h/mL
VV
  tail lesions: significantly reduced
Cowpox virus (CV)
  EC50: ≤ 70 nM
[4]; both, iv, 3 mg/kg
  AUC0-24 hr: 3390 ± 1070 ng·h/mL
  CL: 16.1 ± 6.05 mL/min/kg
[4]; both, iv, 30 mg/kg
  mean maximum plasma concentration: 38.5 µg/mL
[4]; female, 3 mg/kg
  peak plasma concentration: 4345 ng/mL
[4]; male, 3 mg/kg
  peak plasma concentration: 7225 ng/mL
Ectromelia virus (ECTV)
  EC50: ≤ 70 nM
In vivo [5]; iv, 1 mg/kg
  AUC(0-t): 1880 ± 455 ng·h/mL
  AUC(0-inf): 1940 ± 459 ng·h/mL
  Cmax: 384 ± 112 ng/mL
  Tmax: 4 h
In vivo [5]; iv, 1 mg/kg, CL
  clearance: 8.95 mL/min/kg
In vivo [5]; iv, 1 mg/kg, T1/2
  half-life: 6.6 ± 6 h
In vivo [5]; iv, 3 mg/kg
  AUC(0-t): 5650 ± 784 ng·h/mL
  AUC(0-inf): 5830 ± 870 ng·h/mL
  Cmax: 1050 ± 185 ng/mL
  Tmax: 4 h
In vivo [5]; iv, 3 mg/kg, CL
  clearance: 8.72 mL/min/kg
In vivo [5]; iv, 3 mg/kg, T1/2
  half-life: 8.5 ± 3.2 h
In vivo [5]; iv, 10 mg/kg
  AUC(0-t): 21100 ± 3450 ng·h/mL
  AUC(0-inf): 21300 ± 3400 ng·h/mL
  Cmax: 4400 ± 935 ng/mL
  Tmax: 4 h
In vivo [5]; iv, 10 mg/kg, CL
  clearance: 7.97 mL/min/kg
In vivo [5]; iv, 10 mg/kg, T1/2
  half-life: 8.6 ± 1.3 h
In vivo [5]; iv, 15 mg/kg
  AUC(0-inf): 32500 ± 5700 ng·h/mL
  Cmax: 7360 ± 1470 ng/mL
  Tmax: 4 h
In vivo [5]; iv, 15 mg/kg, CL
  clearance: 5.85 mL/min/kg
In vivo [5]; iv, 15 mg/kg, T1/2
  half-life: 9.1 ± 2.6 h
In vivo [5]; iv, 20 mg/kg
  AUC(0-inf): 59600 ± 10100 ng·h/mL
  Cmax: 11800 ± 2000 ng/mL
  Tmax: 4 h
In vivo [5]; iv, 20 mg/kg, CL
  clearance: 5.88 mL/min/kg
In vivo [5]; iv, 20 mg/kg, T1/2
  half-life: 8.7 ± 2.5 h
In vivo [5]; iv, 30 mg/kg
  AUC(0-inf): 100000 ± 18000 ng·h/mL
  Cmax: 20100 ± 4200 ng/mL
  Tmax: 4 h
In vivo [5]; iv, 30 mg/kg, CL
  clearance: 5.12 mL/min/kg
In vivo [5]; iv, 30 mg/kg, T1/2
  half-life: 7.8 ± 0.7 h
In vivo [5]; iv, clearance
  clearance: ~8.33 mL/min/kg
In vivo [5]; iv, elimination half-lives
  half-life: 6.6 to 9.1 h
In vivo [5]; iv, terminal elimination half-life
  half-life: 6.6 to 8.6 h
In vivo [5]; terminal elimination half-life
  half-life: 8.9 h
In vivo [5]; 3 mg/kg
  bioavailability: 77%
In vivo [5]; 20 mg/kg
  bioavailability: 31%
In vivo [5]; 30 mg/kg
  bioavailability: 31%
4 ° C.
  Solubility of ST-246: 5.47 and 6.05
25 ° C.
  Solubility of ST-246: 9.21 and 10.59
40 ° C.
  Solubility of ST-246: 12.99 and 12.23
60 ° C.
  Solubility of ST-246: 17.41 and 16.21
CV
  preventing or reducing mortality: highly effective in preventing or reducing mortality
  toxicity in animal model: nontoxic
[6]; female, CD-1, mouse, iv, 75 mg/kg
  time to recovery: 2 to 3 h
[6]; mouse
  tolerability: well-tolerated
[6]; mouse, iv, 34 mg/kg
  toxicity after bolus IV injection: some dose-related toxicity and mortality
[6]; mouse, iv, 75 mg/kg
  clinical signs: unsteady gait
[6]; mouse, iv, 100 mg/kg
  clinical signs: clinical signs of labored breathing and lethargy
[7]; 75 mg/kg
  average plasma concentration at the end of infusion: 238, 333 ng/mL
  Cmax: 238000 ng/mL
[7]; 10 mg/kg
  Cmax: 64000 ng/mL
[7]; 30 mg/kg
  Cmax: 147333 ng/mL
ECTV
  preventing or reducing mortality: highly effective in preventing or reducing mortality
  toxicity in animal model: nontoxic
Physchem [8]; oil or lipid, absolute solubility of ST-246 in oils
  solubility: < 5000 µg/mL
Physchem [8]; pH 6.8, aqueous buffer, ST-246 Solubility
  solubility: < 100 µg/mL
Physchem [8]; simulated gastric fluid, ST-246 Solubility
  solubility: < 100 µg/mL
Physchem [8]; water, ST-246 Solubility
  solubility: < 100 µg/mL
In vivo [9]; 1 mg/kg, AUC0-24 hr
  AUC(0-t): 1430 ± 400 ng·h/mL
In vivo [9]; 1 mg/kg
  clearance: 27.7 mL/min/kg
In vivo [9]; 1 mg/kg, Cmax
  Cmax: 1670 ± 2270 ng/mL
In vivo [9]; 1 mg/kg, T1/2
  half-life: 0.9 ± 0.2 h
In vivo [9]; both, 3 mg/kg, AUC0-24
  AUC(0-t): 2380 ng·h/mL
In vivo [9]; both, 3 mg/kg, AUC0-24 hr
  AUC(0-t): 2380 ± 930 ng·h/mL
In vivo [9]; both, 3 mg/kg
  clearance: 22.3 mL/min/kg
In vivo [9]; both, 3 mg/kg, Cmax
  Cmax: 3030 ± 370 ng/mL
In vivo [9]; both, 3 mg/kg, mean Cmax
  Cmax: 5790 ng/mL
In vivo [9]; both, 30 mg/kg, AUC0-24 hr
  AUC(0-t): 13300 ± 700 ng·h/mL
In vivo [9]; both, 30 mg/kg
  clearance: 37.1 mL/min/kg
In vivo [9]; both, 30 mg/kg, Cmax
  Cmax: 38500 ± 3700 ng/mL
In vivo [9]; both, 30 mg/kg, T1/2
  half-life: 12.2 ± 5.8 h
In vivo [9]; both, 60 mg/kg, AUC0-24 hr
  AUC(0-t): 61800 ± 8700 ng·h/mL
In vivo [9]; both, 60 mg/kg
  clearance: 16.4 mL/min/kg
In vivo [9]; both, 60 mg/kg, Cmax
  Cmax: 94100 ± 11100 ng/mL
In vivo [9]; both, 60 mg/kg, T1/2
  half-life: 5.2 ± 0.8 h
In vivo [9]; both, 60 mg/kg, mean Cmax
  Cmax: 94100 ng/mL
In vivo [9]; both, elimination half-lives
  half-life: 1 to 12.2 h
In vivo [9]; female, 1 mg/kg, AUC0-24
  AUC(0-t): 1150 ng·h/mL
In vivo [9]; female, 1 mg/kg, Cmax
  Cmax: 679 ng/mL
In vivo [9]; female, 1 mg/kg, T1/2
  half-life: 0.69 h
In vivo [9]; female, 3 mg/kg, AUC0-24
  AUC(0-t): 3210 ng·h/mL
In vivo [9]; female, 3 mg/kg, Cmax
  Cmax: 3340 ng/mL
In vivo [9]; female, 30 mg/kg, AUC0-24
  AUC(0-t): 14900 ng·h/mL
In vivo [9]; female, 30 mg/kg, Cmax
  Cmax: 37000 ng/mL
In vivo [9]; female, 30 mg/kg, T1/2
  half-life: 16.3 h
In vivo [9]; female, 60 mg/kg, AUC0-24
  AUC(0-t): 60100 ng·h/mL
In vivo [9]; female, 60 mg/kg, Cmax
  Cmax: 88200 ng/mL
In vivo [9]; female, 60 mg/kg, T1/2
  half-life: 4.6 h
In vivo [9]; male, 1 mg/kg, AUC0-24
  AUC(0-t): 1710 ng·h/mL
In vivo [9]; male, 1 mg/kg, Cmax
  Cmax: 769 ng/mL
In vivo [9]; male, 1 mg/kg, T1/2
  half-life: 1.1 h
In vivo [9]; male, 3 mg/kg, AUC0-24
  AUC(0-t): 1870 ng·h/mL
In vivo [9]; male, 3 mg/kg, T1/2
  half-life: 3.2 h
In vivo [9]; male, 30 mg/kg, AUC0-24
  AUC(0-t): 16200 ng·h/mL
In vivo [9]; male, 30 mg/kg, Cmax
  Cmax: 40000 ng/mL
In vivo [9]; male, 30 mg/kg, T1/2
  half-life: 8.1 h
In vivo [9]; male, 60 mg/kg, AUC0-24
  AUC(0-t): 72300 ng·h/mL
In vivo [9]; male, 60 mg/kg, Cmax
  Cmax: 99800 ng/mL
In vivo [9]; male, 60 mg/kg, T1/2
  half-life: 5.7 h
